The record followed here is patent publication US20080096907A1, “Aryl, Pyrimidyl Compounds, Pharmaceutical Compositions Comprising them, Their Use as Antimicrobial Agents” (INSTITUT PASTEUR, priority 2004, published 2008).

For series [1], the system named is Cc1cn([C@H]2C[C@H](O)[C@@H](COP(=O)(O)O)O2)c(=O)[nH]c1=O. Description: purified protein, by the assay type. The settings on record: other: substrate Km; pH 7.4; 30.0 °C.
For series [2], the target named is TMPKmt (M. tuberculosis TMPK) (Mycobacterium tuberculosis, UniProt P9WKE1). Description: biochemical. The format is biochemical.
The subject of series [3] is Mycobacterium tuberculosis H37Ra. Briefly: IC50 on cultures of Mycobacterium tuberculosis H37Ra. The format is cell-based. The source says:
The IC50 value for three compounds has been measured on cultures of Mycobacterium tuberculosis H37Ra.

In another series the test system is VERO cells. Description: cytotoxicity on VERO cells. The format is cell-based. On the procedure: Cytotoxicity: The molecule 22 has been tested for its cytotoxicity on VERO cells. It has been determined that no growth inhibition, and consequently no cytotoxic activity, could be detected up to a concentration of 250 μg/ml of compound 22.
Substrate in series [4]: Cc1cn([C@H]2C[C@H](O)[C@@H](COP(=O)(O)O)O2)c(=O)[nH]c1=O
Description: purified protein, by the assay type. The settings on record: other: substrate Km; pH 7.4; 30.0 °C. This is another data set of the same source.

[5] abbreviates: pH 7.4, read-out: TMPKmt W1002 Ki.

Converted amounts (≈) assume the structure as drawn. Like-named read-outs stand apart in the source and are kept apart here.

Chain of TMPKmt (M. tuberculosis TMPK) (P9WKE1 whole entry, looked up): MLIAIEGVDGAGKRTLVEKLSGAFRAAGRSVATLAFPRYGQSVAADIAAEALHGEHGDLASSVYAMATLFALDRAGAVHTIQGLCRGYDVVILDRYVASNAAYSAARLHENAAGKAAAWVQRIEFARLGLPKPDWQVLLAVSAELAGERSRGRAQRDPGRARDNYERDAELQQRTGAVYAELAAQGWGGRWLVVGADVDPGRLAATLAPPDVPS

One may read the Km as the concentration of substrate that gives half-maximal velocity. As to “TMPKmt (M. tuberculosis TMPK) (Mycobacterium tuberculosis H37Rv)”, the Km in series [1] came out at 4.5 µM.

A word on the Ki: it is a dissociation constant, usually derived from enzyme kinetics or from competition with a known ligand. Turning to `Cc1cn(Cc2ccc(CCC(=O)O)cc2)c(=O)[nH]c1=O` [Compound 2, 3-[4-(5-Methyl-2,4-dioxo-3,4-dihydro-2H-pyrimidin-1-ylmethyl)-phenyl]-propionic acid], in series [2] (setting [5]), the Ki is 68 µM.

Take `Cc1cn(Cc2ccc(CCCCO)cc2)c(=O)[nH]c1=O` [Compound 31, 1-[4-(4-Elydroxy-butyl)-benzyl]-5-methyl-1H-pyrimidine-2,4-dione]: the Ki in series [2] (pH 7.4, read-out: Ki) is 63 µM.

As to `CCOC(=O)CCc1ccc(Cn2cc(C)c(=O)[nH]c2=O)cc1` [Compound 19, 3-[4-(5-Methyl-2,4-dioxo-3,4-dihydro-2H-pyrimidin-1-ylmethyl)-phenyl]-propionic acid ethyl ester], the Ki in series [2] (setting [5]) is 265 µM.

Consider `Cc1cn(Cc2ccc(CC(F)CC=O)cc2)c(=O)[nH]c1=O` (stereo not drawn) [Compound 64, 3-Fluoro-4-[4-(5-methyl-2,4-dioxo-3,4-dihydro-2H-pyrimidin-1-yl-methyl)-phenyl]-butyraldehyde], for which, in series [2], affinity was put at a Ki of 26 µM.

In general, IC50 refers to the concentration that gives 50% inhibition. A low value points to greater potency in that assay. For `Cc1cn(Cc2ccc(CCCCCC(=O)O)cc2)c(=O)[nH]c1=O` [Compound 22, 6-[4-(5-Methyl-2,4-dioxo-3,4-dihydro-2H-pyrimidin-1-yl-methyl)-phenyl]-hexanoic acid], the Ki in series [2] (setting [5]) came to 32 µM. In addition, the IC50 in series [3] is 25 µg/mL (≈ 75.7 µM). For the same molecule, the “concentration up to which no growth inhibition / no cytotoxic activity could be detected” value in the series on VERO cells was over 250 µg/mL.

For `O=C(O)CCCc1ccc(Cn2cc(Br)c(=O)[nH]c2=O)cc1` [Compound 21, 4-[5-Bromo-(2,4-dioxo-3,4-dihydro-2H-pyrimidin-1-ylmethyl)-phenyl]butyric acid], the IC50 in series [3] was 50 µg/mL (≈ 136 µM).

For `Cc1cn(Cc2ccc(CCCC(N)=O)cc2)c(=O)[nH]c1=O` [Compound 40b], in series [2] (pH 7.4, read-out: Ki), the inhibitory constant (Ki) amounted to 139 µM.

As for `Cc1cn(Cc2ccc(Cl)cc2)c(=O)[nH]c1=O` [Compound 9, 5-Methyl-1-(4-chloro-benzyl)-1H-pyrimidine-2,4-dione], in series [2] (setting [5]), the Ki stood at 50 µM.

For `Cc1cn(Cc2ccccc2)c(=O)[nH]c1=O` [Compound 3, 5-Methyl-1-Benzyl-1H-pyrimidine-2,4-dione], the Ki in series [2] (setting [5]) stood at 75 µM.

For `O=C(O)CCCc1ccc(Cn2cc(Cl)c(=O)[nH]c2=O)cc1` [Compound 39], the inhibition constant Ki in series [2] (pH 7.4, read-out: Ki) is 15 µM.

Turning to `Cc1cn(Cc2ccc(CCCC(=O)O)cc2)c(=O)[nH]c1=O` [Compound 20, 4-[4-(5-Methyl-2,4-dioxo-3,4-dihydro-2H-pyrimidin-1-yl-methyl)-phenyl]-butyric acid], in series [2] (setting [5]), the Ki turned out to be 16.5 µM. Moreover, the IC50 in series [3] was 100 µg/mL (≈ 331 µM).

As for `N#Cc1cn(Cc2ccccc2)c(=O)[nH]c1=O` [Compound 12], in series [2] (setting [5]), the Ki turned out to be 980 µM.

Regarding `Cc1cn(Cc2cccc(F)c2)c(=O)[nH]c1=O` [Compound 7, 5-Methyl-1-(3-fluoro-benzyl)-1H-pyrimidine-2,4-dione], the Ki in series [2] (setting [5]) came to 90 µM.

For `N#Cc1cn(Cc2cccc(Cl)c2)c(=O)[nH]c1=O` [Compound 13], the Ki in series [2] (setting [5]) was found to be 810 µM.

Consider `Cc1cn(Cc2ccc(CCC(N)=O)cc2)c(=O)[nH]c1=O` [Compound 1, 3-[4-(5-Methyl-2,4-dioxo-3,4-dihydro-2H-pyrimidin-1-ylmethyl)-phenyl]-propionamide], for which the Ki in series [2] (setting [5]) was found to be 110 µM.

Regarding `Cc1cn(Cc2ccc(CC(F)CC(=O)O)cc2)c(=O)[nH]c1=O` (stereo not drawn) [Compound 65, 3-Fluoro-4-[4-(5-Methyl-2,4-dioxo-3,4-dihydro-2H-pyrimidin-1-yl-methyl)-phenyl]-butyric acid], the Ki in series [2] stood at 63 µM.

Consider `NC(=O)CCCCCc1ccc(Cn2cc(Br)c(=O)[nH]c2=O)cc1` [Compound 61, 6-[4-(5-Bromo-2,4-dioxo-3,4-dihydro-2H-pyrimidin-1-yl-methyl)-phenyl]-hexanoic acid amide], for which the Ki in series [2] (pH 7.4, read-out: Ki) is 24 µM.

In the case of `O=C(O)CCCCCc1ccc(Cn2cc(Cl)c(=O)[nH]c2=O)cc1` [Compound 59, 6-[4-(5-Chloro-2,4-dioxo-3,4-dihydro-2H-pyrimidin-1-yl-methyl)-phenyl]-hexanoic acid], the Ki in series [2] was determined as 49 µM.

As to `Cc1cn(Cc2ccc(C=CC(N)=O)cc2)c(=O)[nH]c1=O` [Compound 14, 3-[4-(5-Methyl-2,4-dioxo-3,4-dihydro-2H-pyrimidin-1-ylmethyl)-phenyl]-acrylamide], in series [2] (setting [5]), the Ki amounted to 240 µM.

In the case of `Cc1cn(Cc2ccc(CCCCC(=O)O)cc2)c(=O)[nH]c1=O` [Compound 45, 5-[4-(5-Methyl-2,4-dioxo-3,4-dihydro-2H-pyrimidin-1-yl-methyl)-phenyl]-pentanoic acid], the Ki in series [2] (pH 7.4, read-out: Ki) worked out at 72 µM.

As for `Cc1cn(Cc2ccc(C#CCCCC(N)=O)cc2)c(=O)[nH]c1=O` [Compound 53, 6-[4-(5-Methyl-2,4-dioxo-3,4-dihydro-2H-pyrimidin-1-yl-methyl)-phenyl]-hexyn-5-oic acid amide], in series [2] (pH 7.4, read-out: Ki), the inhibition constant Ki stood at 113 µM.

For `Cc1cn(Cc2ccc(F)cc2)c(=O)[nH]c1=O` [Compound 6, 5-Methyl-1-(4-fluoro-benzyl)-1H-pyrimidine-2,4-dione], the Ki in series [2] (setting [5]) stood at 45 µM.

As to `Cc1cn(Cc2ccc(C#CCCCC(=O)O)cc2)c(=O)[nH]c1=O` [Compound 51, 6-[4-(5-Methyl-2,4-dioxo-3,4-dihydro-2H-pyrimidin-1-yl-methyl)-phenyl]-hexyn-5-oic acid], the Ki in series [2] (pH 7.4, read-out: Ki) was 119 µM.

With `Cc1cn(Cc2ccc(CCCCCC(N)=O)cc2)c(=O)[nH]c1=O` [Compound 54, 6-[4-(5-Methyl-2,4-dioxo-3,4-dihydro-2H-pyrimidin-1-yl-methyl)-phenyl]-hexanoic acid amide], in series [2] (pH 7.4, read-out: Ki), the Ki worked out at 33 µM.

Take `O=C(O)CCCCc1ccc(Cn2cc(Br)c(=O)[nH]c2=O)cc1` [Compound 48, 5-[4-(5-Bromo-2,4-dioxo-3,4-dihydro-2H-pyrimidin-1-yl-methyl)-phenyl]-pentanoic acid]: the Ki in series [2] (pH 7.4, read-out: Ki) came to 47 µM.

In the case of `Cc1cn(Cc2cccc(Cl)c2)c(=O)[nH]c1=O` [Compound 10, 5-Methyl-1-(3-chloro-benzyl)-1H-pyrimidine-2,4-dione], the Ki in series [2] (setting [5]) was determined as 44 µM.

Take `Cc1cn(Cc2ccc(CSCC(=O)O)cc2)c(=O)[nH]c1=O` [Compound 63, 3-[4-(5-Methyl-2,4-dioxo-3,4-dihydro-2H-pyrimidin-1-ylmethyl)-benzylsulfanyl]-acetic acid]: the Ki in series [2] (pH 7.4, read-out: Ki) is 15 µM.

With `Cc1cn(Cc2ccc(Br)cc2)c(=O)[nH]c1=O` [Compound 11, 5-Methyl-1-(4-bromo-benzyl)-1H-pyrimidine-2,4-dione], in series [2] (setting [5]), the Ki was 38 µM.

As for `NC(=O)CCCCCc1ccc(Cn2cc(Cl)c(=O)[nH]c2=O)cc1` [Compound 62, 6-[4-(5-Chloro-2,4-dioxo-3,4-dihydro-2H-pyrimidin-1-yl-methyl)-phenyl]-hexanoic acid amide], the Ki in series [2] worked out at 32 µM.

For the molecule `O=c1[nH]c(=O)n(Cc2ccccc2)cc1Br` [Compound 4, 5-Bromo-1-benzyl-1H-pyrimidine-2,4-dione], the Ki in series [2] (setting [5]) worked out at 44 µM.

As for `Cc1cn(Cc2ccc(F)c(F)c2)c(=O)[nH]c1=O` [Compound 8, 5-Methyl-1-(3,4-difluoro-benzyl)-1H-pyrimidine-2,4-dione], in series [2] (setting [5]), the Ki amounted to 67 µM.

Turning to `O=C(O)CCCCCc1ccc(Cn2cc(Br)c(=O)[nH]c2=O)cc1` [Compound 58, 6-[4-(5-Bromo-2,4-dioxo-3,4-dihydro-2H-pyrimidin-1-yl-methyl)-phenyl]-hexanoic acid], the Ki in series [2] (pH 7.4, read-out: Ki) stood at 42 µM.

Turning to `Cc1cn(Cc2ccc(C#CCCO)cc2)c(=O)[nH]c1=O` [Compound 30, 1-[4-(4-Hydroxy-but-1-ynyl)-benzyl]-5-methyl-1H-pyrimidine-2,4-dione], the Ki in series [2] (pH 7.4, read-out: Ki) came out at 86 µM.

Turning to `COC(=O)CCCc1ccc(Cn2cc(C)c(=O)[nH]c2=O)cc1` [Compound 40a], the Ki in series [2] (pH 7.4, read-out: Ki) was 70 µM.

B1: TMPKh (human TMPK) (Homo sapiens) (protein)
chain: MAARRGALIVLEGVDRAGKSTQSRKLVEALCAAGHRAELLRFPERSTEIGKLLSSYLQKKSDVEDHSVHLLFSANRWEQVPLIKEKLSQGVTLVVDRYAFSGVAFTGAKENFSLDWCKQPDVGLPKPDLVLFLQLQLADAAKRGAFGHERYENGAFQERALRCFHQLMKDTTLNWKMVDASKSIEAVHEDIRVLSEDAIRTATEKPLGELWK
Take B1: in series [4], the Km is 5 µM.
